In ChEMBL document CHEMBL1126784, “A selective delta 1 opioid receptor agonist derived from oxymorphone. Evidence for separate recognition sites for delta 1 opioid receptor agonists and antagonists” (J Med Chem, 1993):

Tests used:
Mus musculus = experiment: Antinociceptive potency in mice using the tail-flick test on icv administration.; assay type: functional
[1] = molecular target: Kappa-type opioid receptor (Cavia porcellus, UniProt P41144); experiment: selective binding affinity against kappa opioid receptor, using [3H]U-69593 as radioligand
Kappa-type opioid receptor, sequence (P41144 whole entry): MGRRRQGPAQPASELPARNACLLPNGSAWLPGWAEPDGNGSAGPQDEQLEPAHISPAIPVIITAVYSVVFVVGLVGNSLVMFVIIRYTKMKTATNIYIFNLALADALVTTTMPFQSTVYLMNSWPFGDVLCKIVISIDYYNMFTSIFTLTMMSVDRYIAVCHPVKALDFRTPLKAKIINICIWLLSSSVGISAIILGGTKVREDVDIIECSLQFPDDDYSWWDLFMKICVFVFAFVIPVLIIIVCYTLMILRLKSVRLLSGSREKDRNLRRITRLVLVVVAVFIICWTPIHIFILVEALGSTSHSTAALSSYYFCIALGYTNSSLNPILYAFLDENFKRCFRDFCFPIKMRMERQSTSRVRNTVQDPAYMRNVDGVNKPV

Mu-type opioid receptor = Mu-type opioid receptor (Cavia porcellus, UniProt P97266); experiment: selective binding affinity against mu opioid receptor, using [3H]DAMGO as radioligand
Mu-type opioid receptor, sequence (P97266 whole entry): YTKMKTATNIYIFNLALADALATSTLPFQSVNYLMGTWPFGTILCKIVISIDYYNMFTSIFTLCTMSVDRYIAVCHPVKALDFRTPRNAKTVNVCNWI

Compound	ED50 (Mus musculus) [nM mouse-1]	Ki [1] [nM]	Ki (Mu-type opioid receptor) [nM]
CC1(C)SSC(C)(C)[C@@H](NC(=O)[C@@H](N)Cc2ccc(O)cc2)C(=O)NCC(=O)N[C@@H](Cc2ccccc2)C(=O)N[C@H]1C(=O)O	11.5	–	–
CN1CC[C@]23c4c5ccc(O)c4O[C@H]2C(=O)C2(Cc4ccccc4C2)C[C@@]3(O)[C@H]1C5 [SPIROINDANYLOXYMORPHONE]	1.7	588	10.6
